The source made the active and inactive calls. No cut-off for these calls is given here.
What was measured:
[1] = test system: RPMI-8226; assay: Growth inhibition of human RPMI8226 cells assessed as cell growth at 10^-8 M incubated for 48 hrs by sulforhodamine B assay relative to control; format: functional; conditions: RPMI-8226, 48 h, read-out: Activity
[2] = test system: COLO 205; assay: Growth inhibition of human COLO205 cells assessed as cell growth at 10^-8 M incubated for 48 hrs by sulforhodamine B assay relative to control; format: functional; conditions: COLO 205, 48 h, read-out: Activity
[3] = test system: LOX IMVI; assay: Growth inhibition of human LOXIMVI cells assessed as cell growth at 10^-8 M incubated for 48 hrs by sulforhodamine B assay relative to control; format: functional; conditions: read-out: Activity
[4] = test system: SK-MEL-2; assay: Growth inhibition of human SK-MEL-2 cells assessed as cell growth at 10^-8 M incubated for 48 hrs by sulforhodamine B assay relative to control; format: functional; conditions: SK-MEL-2, 48 h, read-out: Activity
[5] = test system: SK-MEL-28; assay: Growth inhibition of human SK-MEL-28 cells assessed as cell growth at 10^-8 M incubated for 48 hrs by sulforhodamine B assay relative to control; format: functional; conditions: SK-MEL-28, 48 h, read-out: Activity
[6] = test system: OVCAR-5; assay: Growth inhibition of human OVCAR5 cells assessed as cell growth at 10^-8 M incubated for 48 hrs by sulforhodamine B assay relative to control; format: functional; conditions: OVCAR-5, 48 h, read-out: Activity
[7] = test system: K562; assay: Growth inhibition of human K562 cells assessed as cell growth at 10^-7 M incubated for 48 hrs by sulforhodamine B assay relative to control; format: functional; conditions: K562, 48 h, read-out: Activity
[8] = test system: HOP-62; assay: Growth inhibition of human HOP62 cells assessed as cell growth at 10^-7 M incubated for 48 hrs by sulforhodamine B assay relative to control; format: functional; conditions: HOP-62, 48 h, read-out: Activity
[9] = test system: HCC 2998; assay: Growth inhibition of human HCC2998 cells assessed as cell growth at 10^-7 M incubated for 48 hrs by sulforhodamine B assay relative to control; format: functional; conditions: HCC 2998, 48 h, read-out: Activity
[10] = test system: HCT-116; assay: Growth inhibition of human HCT116 cells assessed as cell growth at 10^-7 M incubated for 48 hrs by sulforhodamine B assay relative to control; format: functional; conditions: HCT-116, 48 h, read-out: Activity
[11] = test system: SF-295; assay: Growth inhibition of human SF295 cells assessed as cell growth at 10^-7 M incubated for 48 hrs by sulforhodamine B assay relative to control; format: functional; conditions: SF-295, 48 h, read-out: Activity
[12] = test system: SF-539; assay: Growth inhibition of human SF539 cells assessed as cell growth at 10^-7 M incubated for 48 hrs by sulforhodamine B assay relative to control; format: functional; conditions: SF-539, 48 h, read-out: Activity
[13] = test system: OVCAR-8; assay: Growth inhibition of human OVCAR8 cells assessed as cell growth at 10^-7 M incubated for 48 hrs by sulforhodamine B assay relative to control; format: functional; conditions: OVCAR-8, 48 h, read-out: Activity
[14] = test system: NCI-H460; assay: Growth inhibition of human NCI-H460 cells assessed as cell growth at 10^-6 M incubated for 48 hrs by sulforhodamine B assay relative to control; format: functional; conditions: NCI-H460, 48 h, read-out: Activity
[15] = test system: NCI-H522; assay: Growth inhibition of human NCI-H522 cells assessed as cell growth at 10^-6 M incubated for 48 hrs by sulforhodamine B assay relative to control; format: functional; conditions: NCI-H522, 48 h, read-out: Activity
[16] = test system: NCI-H322M; assay: Growth inhibition of human NCI-H322M cells assessed as cell growth at 10^-5 M incubated for 48 hrs by sulforhodamine B assay relative to control; format: functional; conditions: read-out: Activity
[17] = test system: U-251; assay: Growth inhibition of human U251 cells assessed as cell growth at 10^-5 M incubated for 48 hrs by sulforhodamine B assay relative to control; format: functional; conditions: U-251, 48 h, read-out: Activity
[18] = test system: MDA-MB-435; assay: Growth inhibition of human MDA-MB-435 cells assessed as cell growth at 10^-5 M incubated for 48 hrs by sulforhodamine B assay relative to control; format: functional; conditions: MDA-MB-435, 48 h, read-out: Activity
[19] = test system: SNB-75; assay: Growth inhibition of human SNB75 cells assessed as cell growth at 10^-4 M incubated for 48 hrs by sulforhodamine B assay relative to control; format: functional; conditions: SNB-75, 48 h, read-out: Activity
[20] = test system: U-251; assay: Growth inhibition of human U251 cells assessed as cell growth at 10^-4 M incubated for 48 hrs by sulforhodamine B assay relative to control; format: functional; conditions: U-251, 48 h, read-out: Activity
[21] = test system: OVCAR-3; assay: Growth inhibition of human OVCAR3 cells assessed as cell growth at 10^-4 M incubated for 48 hrs by sulforhodamine B assay relative to control; format: functional; conditions: OVCAR-3, 48 h, read-out: Activity
[22] = test system: CAKI-1; assay: Growth inhibition of human Caki1 cells assessed as cell growth at 10^-4 M incubated for 48 hrs by sulforhodamine B assay relative to control; format: functional; conditions: CAKI-1, 48 h, read-out: Activity
[23] = test system: HOP-62; assay: Growth inhibition of human HOP62 cells incubated for 48 hrs by sulforhodamine B assay; format: functional; conditions: HOP-62, 48 h
[24] = test system: NCI-H460; assay: Growth inhibition of human NCI-H460 cells incubated for 48 hrs by sulforhodamine B assay; format: functional; conditions: NCI-H460, 48 h
[25] = test system: HCC 2998; assay: Growth inhibition of human HCC2998 cells incubated for 48 hrs by sulforhodamine B assay; format: functional; conditions: HCC 2998, 48 h
[26] = test system: MCF7; assay: Growth inhibition of human MCF7 cells incubated for 48 hrs by sulforhodamine B assay; format: functional; conditions: MCF7, 48 h
[27] = test system: BT-549; assay: Growth inhibition of human BT549 cells incubated for 48 hrs by sulforhodamine B assay; format: functional; conditions: BT-549, 48 h
[28] = test system: HL-60; assay: Cell cycle arrest in human HL60 cells assessed as accumulation at G1-phase by propidium iodide staining based flow cytometry (reference value: 67.27%); format: functional
[29] = test system: HL-60; assay: Induction of apoptosis in human HL60 cells assessed as increase in gammaH2ax expression by qRT-PCR method; format: functional, cell-based
[30] = test system: MDA-MB-435; assay: Downregulation of HDAC3 mRNA expression in human MDA-MB-435 cells by qRT-PCR method; format: functional, cell-based
[31] = read-out: LC50 (the source's name)
[32] = read-out: pLC50 (the source's name) (converted)

What does the source list for CCS/C(Nc1ccccc1)=C(\C#N)C(=O)N/N=C\c1ccc(Cl)cc1Cl?
growth at 0.01 µM [1]: 101%; growth at 0.01 µM [2]: 101%; growth at 0.01 µM [3]: 95%; growth at 0.01 µM [4]: 106%; growth at 0.01 µM [5]: 104%; growth at 0.01 µM [6]: 105%; growth at 0.1 µM [7]: 90%; growth at 0.1 µM [8]: 85%; growth at 0.1 µM [9]: 100%; growth at 0.1 µM [10]: 92%; growth at 0.1 µM [11]: 88%; growth at 0.1 µM [12]: 94%; growth at 0.1 µM [13]: 96%; growth at 1 µM [14]: 91%; growth at 1 µM [15]: 68%; growth at 10 µM [16]: 42%; growth at 10 µM [17]: 20%; growth at 10 µM [18]: -53%; growth at 100 µM [19]: -17%; growth at 100 µM [20]: 12%; growth at 100 µM [21]: -23%; growth at 100 µM [22]: 13%; GI50 ([23]; read-out: GI50): 3.66 µM; CC50 [23, 31]: > 100 µM; TGI ([23]; read-out: TGI): > 100 µM; GI50 ([23]; read-out: pGI50 (converted)): 3.63 µM; CC50 [23, 32]: > 100 µM; TGI ([23]; read-out: pTGI): > 100 µM; GI50 ([24]; read-out: GI50): 3.16 µM; LC50 ([24]; read-out: LC50): > 100 µM; TGI ([24]; read-out: TGI): > 100 µM; GI50 ([24]; read-out: pGI50 (converted)): 3.16 µM; LC50 ([24]; read-out: pLC50 (converted)): > 100 µM; TGI ([24]; read-out: pTGI (converted)): > 100 µM; GI50 ([25]; read-out: GI50): 5.47 µM; CC50 [25, 31]: > 100 µM; TGI ([25]; read-out: TGI): > 100 µM; GI50 ([25]; read-out: pGI50 (converted)): 5.5 µM; CC50 [25, 32]: > 100 µM; TGI ([25]; read-out: pTGI): > 100 µM; GI50 ([26]; read-out: GI50): 2.99 µM; CC50 [26, 31]: > 100 µM; TGI ([26]; read-out: TGI): > 100 µM; GI50 ([26]; read-out: pGI50 (converted)): 3.02 µM; CC50 [26, 32]: > 100 µM; TGI ([26]; read-out: pTGI): > 100 µM; GI50 ([27]; read-out: GI50): 2.8 µM; CC50 [27, 31]: > 100 µM; TGI ([27]; read-out: TGI): > 100 µM; GI50 ([27]; read-out: pGI50 (converted)): 2.82 µM; CC50 [27, 32]: > 100 µM; TGI ([27]; read-out: pTGI): > 100 µM; Activity [28]: 46.38%; Activity [29]: Active; Activity [30]: Active

Which results are given for CCS/C(Nc1ccccc1)=C(\C#N)C(=O)Nc1ccc(OC)cc1?
growth at 0.01 µM [1]: 94%; growth at 0.01 µM [2]: 111%; growth at 0.01 µM [3]: 100%; growth at 0.01 µM [4]: 106%; growth at 0.01 µM [5]: 101%; growth at 0.01 µM [6]: 104%; growth at 0.1 µM [7]: 88%; growth at 0.1 µM [8]: 84%; growth at 0.1 µM [9]: 92%; growth at 0.1 µM [10]: 89%; growth at 0.1 µM [11]: 90%; growth at 0.1 µM [12]: 92%; growth at 0.1 µM [13]: 99%; growth at 1 µM [14]: 90%; growth at 1 µM [15]: 77%; growth at 10 µM [16]: 38%; growth at 10 µM [17]: 26%; growth at 10 µM [18]: -49%; growth at 100 µM [19]: -22%; growth at 100 µM [20]: 6%; growth at 100 µM [21]: -15%; growth at 100 µM [22]: 18%; GI50 ([23]; read-out: GI50): 5.62 µM; CC50 [23, 31]: > 100 µM; TGI ([23]; read-out: TGI): > 100 µM; GI50 ([23]; read-out: pGI50 (converted)): 5.62 µM; CC50 [23, 32]: > 100 µM; TGI ([23]; read-out: pTGI): > 100 µM; GI50 ([24]; read-out: GI50): 3.14 µM; LC50 ([24]; read-out: LC50): > 100 µM; TGI ([24]; read-out: TGI): 34.2 µM; GI50 ([24]; read-out: pGI50 (converted)): 3.16 µM; LC50 ([24]; read-out: pLC50 (converted)): > 100 µM; TGI ([24]; read-out: pTGI (converted)): 33.9 µM; GI50 ([25]; read-out: GI50): 6.56 µM; CC50 [25, 31]: > 100 µM; TGI ([25]; read-out: TGI): > 100 µM; GI50 ([25]; read-out: pGI50 (converted)): 6.61 µM; CC50 [25, 32]: > 100 µM; TGI ([25]; read-out: pTGI): > 100 µM; GI50 ([26]; read-out: GI50): 2.71 µM; CC50 [26, 31]: > 100 µM; TGI ([26]; read-out: TGI): > 100 µM; GI50 ([26]; read-out: pGI50 (converted)): 2.69 µM; CC50 [26, 32]: > 100 µM; TGI ([26]; read-out: pTGI): > 100 µM; GI50 ([27]; read-out: GI50): 2.8 µM; CC50 [27, 31]: > 100 µM; TGI ([27]; read-out: TGI): > 100 µM; GI50 ([27]; read-out: pGI50 (converted)): 2.82 µM; CC50 [27, 32]: > 100 µM; TGI ([27]; read-out: pTGI): > 100 µM; Activity [28]: 54.11%; Activity [29]: Active; Activity [30]: Active

Reference: ChEMBL document CHEMBL4145553, “Design, synthesis, and biological evaluation of novel amide and hydrazide based thioether analogs targeting Histone deacteylase (HDAC) enzymes” (Eur J Med Chem, 2018)
